{"source": "a compilation of properties of binary mixtures (doi:10.1016/j.seppur.2020.117103)", "experiment": "xn = mol fraction of the nth substance listed", "settings": "298.15 K, 100 kPa", "data": [{"molecule": "CO", "note": "+ CC[n+]1ccn(C)c1.N#C[S-]", "values": [{"measurement": "speed of sound", "setting": "x1 = 1", "value": 1103, "unit": "m/s"}]}, {"molecule": "CCO", "note": "+ CC[n+]1ccn(C)c1.N#C[S-]", "values": [{"measurement": "speed of sound", "setting": "x1 = 1", "value": 1142, "unit": "m/s"}]}, {"molecule": "CC[n+]1ccn(C)c1.N#C[S-]", "note": "+ CCO", "values": [{"measurement": "speed of sound", "setting": "x2 = 0", "value": 1851, "unit": "m/s"}, {"measurement": "speed of sound", "setting": "x2 = 0.2134", "value": 1797, "unit": "m/s"}, {"measurement": "speed of sound", "setting": "x2 = 0.345", "value": 1751, "unit": "m/s"}, {"measurement": "speed of sound", "setting": "x2 = 0.3836", "value": 1729, "unit": "m/s"}, {"measurement": "speed of sound", "setting": "x2 = 0.6181", "value": 1592, "unit": "m/s"}, {"measurement": "speed of sound", "setting": "x2 = 0.6948", "value": 1524, "unit": "m/s"}, {"measurement": "speed of sound", "setting": "x2 = 0.8944", "value": 1285, "unit": "m/s"}]}, {"molecule": "CC[n+]1ccn(C)c1.N#C[S-]", "note": "+ CO", "values": [{"measurement": "speed of sound", "setting": "x2 = 0", "value": 1851, "unit": "m/s"}, {"measurement": "speed of sound", "setting": "x2 = 0.2018", "value": 1813, "unit": "m/s"}, {"measurement": "speed of sound", "setting": "x2 = 0.3185", "value": 1780, "unit": "m/s"}, {"measurement": "speed of sound", "setting": "x2 = 0.4076", "value": 1750, "unit": "m/s"}, {"measurement": "speed of sound", "setting": "x2 = 0.5037", "value": 1711, "unit": "m/s"}, {"measurement": "speed of sound", "setting": "x2 = 0.5936", "value": 1655, "unit": "m/s"}, {"measurement": "speed of sound", "setting": "x2 = 0.6923", "value": 1585, "unit": "m/s"}, {"measurement": "speed of sound", "setting": "x2 = 0.805", "value": 1477, "unit": "m/s"}, {"measurement": "speed of sound", "setting": "x2 = 0.9014", "value": 1328, "unit": "m/s"}]}]}
